Columns and labels:
GPR40 [1] = biological target: T1, GPR40 (Homo sapiens, UniProt O14842); experiment: Cell-based aequorin assay (CHO cells stably expressing GPR40 and aequorin); design: expressed in transfected cells; host or cells: CHO cells stably transfected with GPR40 and aequorin; conditions: activation of human GPR40, CHO cells, 0.01% HSA
How it was run: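 CHO cells stably co-expressing GPR40 and aequorin, loaded with coelenterazine (1 ug/mL, 2 h, room temperature) in H/HBSS with 20 mM Hepes and 0.01% fatty acid-free HSA. Serially diluted compounds added; luminescence recorded over 20 s. EC50 from dose-response of maximum relative light units.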

GPR40 [2] = biological target: T1, GPR40; experiment: Inositol phosphate accumulation assay (A9_GPR40 cells); type: cell-based; design: expressed in transfected cells; host or cells: CHO cells stably transfected with GPR40 and aequorin; conditions: inositol phosphate assay, A9_GPR40 cells, 1 hour; read-out: IP3 EC50
Experimental: Briefly, the Aequorin assays were performed on doubly stable CHO cells expressing GPR40 and Aequorin DNA. […] The luminescence was recorded over a period of 20 seconds with a Microlumat luminometer (Berthold). […] The inositol phosphate assay was performed on an A9 cell line stably transfected with GPR40 (A9_GPR40). The cells were incubated with different concentrations of compounds and [^3H] inositol accumulation was measured after 1 hour.
An A9 cell line stably transfected with GPR40 (A9_GPR40) was used in IP accumulation assays. A9_GPR40 cells were plated in 96-well plates containing 20,000 cells/well in DMEM containing 10% FBS. After the cells attached to the well surface, the media was replaced with inositol free DMEM containing 10% dialyzed FBS and 1 μCi, mL ^3H-inositol and incubated for 16 hours. Compounds were diluted in HBSS/10 mM LiCl containing a desired amount of HSA and added directly to cells. Following 1 hour incubation at 37° C., the media was replaced with 100 μL of 20 mM formic acid to quench the reaction. 50 μL of the extract was then added to 100 μL of SPA beads, incubated overnight, and measured on a TopCount the following day.

T1 sequence (O14842 whole entry): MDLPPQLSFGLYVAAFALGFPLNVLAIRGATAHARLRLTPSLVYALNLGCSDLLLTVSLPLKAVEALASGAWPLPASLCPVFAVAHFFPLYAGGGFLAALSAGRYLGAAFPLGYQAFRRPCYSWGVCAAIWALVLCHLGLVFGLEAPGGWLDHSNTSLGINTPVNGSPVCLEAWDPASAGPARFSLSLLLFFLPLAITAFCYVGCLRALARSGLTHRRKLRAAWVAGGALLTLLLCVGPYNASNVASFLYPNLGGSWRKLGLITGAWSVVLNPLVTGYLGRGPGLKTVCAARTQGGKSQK

An EC50 (GPR40 [1]) of 100 to 1000 nM and an EC50 (GPR40 [2]) of 100 to 1000 nM were found for `CCC(CC(=O)O)c1ccc(F)c(OCc2ccc(-c3cc(OC)ccc3F)c(C3=CCCC3(C)C)c2)c1` (single isomer, unassigned) [Example 86.1, (3R)-3-(3-(((2-(5,5-Dimethyl-1-cyclopenten-1-yl)-2′-fluoro-5′-(methyloxy)-1,1′-biphenyl-4-yl)methyl)oxy)-4-fluorophenyl)pentanoic acid or (3S)-3-(3-(((2-(5,5-dimethyl-1-cyclopenten-1-yl)-2′-fluoro-5′-(methyloxy)-1,1′-biphenyl-4-yl)methyl)oxy)-4-fluorophenyl)pentanoic acid] in this work.

An EC50 (GPR40 [1]) of 100 to 1000 nM and an EC50 (GPR40 [2]) of 100 to 1000 nM were found for `CCCCOc1cc(COc2cccc([C@H](CC)CC(=O)O)c2)ccc1-c1cc(OC)ccc1F` (single isomer, unassigned) [Example 18, (3R)-3-(3-(((2-(Butyloxy)-2′-fluoro-5′-(methyloxy)-1,1′-biphenyl-4-yl)methyl)oxy)phenyl)pentanoic acid or (3S)-3-(3-(((2-(butyloxy)-2′-fluoro-5′-(methyloxy)-1,1′-biphenyl-4-yl)methyl)oxy)phenyl)pentanoic acid] in this work.

An EC50 (GPR40 [1]) of 10 to 100 nM and an EC50 (GPR40 [2]) of less than 10 nM were found for `COc1ccc(F)c(-c2cc(F)c(COc3cccc([C@@H](CC(=O)O)C4CC4)c3)cc2[C@H]2CCCC2(C)C)c1` (single isomer, unassigned) [Example 66.44] in this work.

An EC50 (GPR40 [1]) of 100 to 1000 nM and an EC50 (GPR40 [2]) of 10 to 100 nM were found for `COc1ccc(F)c(-c2ccc(COc3cc(F)cc(C(CC(=O)O)CC4CC4)c3)cc2C2=CCCC2(C)C)c1` (single isomer, unassigned) [Example 89.2, (3R)-4-Cyclopropyl-3-(3-(((2-(5,5-dimethyl-1-cyclopenten-1-yl)-2′-fluoro-5′-(methyloxy)-1,1′-biphenyl-4-yl)methyl)oxy)-5-fluorophenyl)butanoic acid or (3S)-4-cyclopropyl-3-(3-(((2-(5,5-dimethyl-1-cyclopenten-1-yl)-2′-fluoro-5′-(methyloxy)-1,1′-biphenyl-4-yl)methyl)oxy)-5-fluorophenyl)butanoic acid] in this work.

An EC50 (GPR40 [1]) of 100 to 1000 nM and an EC50 (GPR40 [2]) of 100 to 1000 nM were found for `CCCCOc1cc(COc2cccc(C(CC(=O)O)C3CCC3)c2)ccc1-c1cc(OC)ccc1F` (single isomer, unassigned) [Example 70.4, (3S)-3-(3-(((2-(Butyloxy)-2′-fluoro-5′-(methyloxy)-1,1′-biphenyl-4-yl)methyl)oxy)phenyl)-3-cyclobutylpropanoic acid or (3R)-3-(3-(((2-(butyloxy)-2′-fluoro-5′-(methyloxy)-1,1′-biphenyl-4-yl)methyl)oxy)phenyl)-3-cyclobutylpropanoic acid] in this work.

An EC50 (GPR40 [1]) of 100 to 1000 nM and an EC50 (GPR40 [2]) of 10 to 100 nM were found for `COc1ccc(F)c(-c2c(F)cc(COc3cccc([C@@H](CC(=O)O)C4CC4)c3)cc2C2=CCCC2(C)C)c1` (single isomer, unassigned) [Example 66.49, (3S)-3-Cyclopropyl-3-(3-(((2-(5,5-dimethyl-1-cyclopenten-1-yl)-2′,6-difluoro-5′-(methyloxy)-1,1′-biphenyl-4-yl)methyl)oxy)phenyl)propanoic acid or (3R)-3-cyclopropyl-3-(3-(((2-(5,5-dimethyl-1-cyclopenten-1-yl)-2′,6-difluoro-5′-(methyloxy)-1,1′-biphenyl-4-yl)methyl)oxy)phenyl)propanoic acid] in this work.

An EC50 (GPR40 [1]) of 100 to 1000 nM and an EC50 (GPR40 [2]) of 10 to 100 nM were found for `CCCCC(CC(=O)O)c1cccc(OCc2ccc(-c3cc(OC)ccc3F)c(C3=CCCC3(C)C)c2)c1` (single isomer, unassigned) [Example 71.3, (3R)-3-(3-(((2-(5,5-Dimethyl-1-cyclopenten-1-yl)-2′-fluoro-5′-(methyloxy)-1,1′-biphenyl-4-yl)methyl)oxy)phenyl)heptanoic acid or (3S)-3-(3-(((2-(5,5-dimethyl-1-cyclopenten-1-yl)-2′-fluoro-5′-(methyloxy)-1,1′-biphenyl-4-yl)methyl)oxy)phenyl)heptanoic acid] in this work.

An EC50 (GPR40 [1]) of 100 to 1000 nM and an EC50 (GPR40 [2]) of less than 10 nM were found for `COc1ccc(F)c(-c2ccc(COc3cccc(C(CC(=O)O)C4CC4)c3)cc2C2=CCCCC2(C)C)c1` (single isomer, unassigned) [Example 66.10, (3S)-3-Cyclopropyl-3-(3-(((2-(6,6-dimethyl-1-cyclohexen-1-yl)-2′-fluoro-5′-(methyloxy)-1,1′-biphenyl-4-yl)methyl)oxy)phenyl)propanoic acid or (3R)-3-cyclopropyl-3-(3-(((2-(6,6-dimethyl-1-cyclohexen-1-yl)-2′-fluoro-5′-(methyloxy)-1,1′-biphenyl-4-yl)methyl)oxy)phenyl)propanoic acid] in this work.

An EC50 (GPR40 [1]) of 100 to 1000 nM and an EC50 (GPR40 [2]) of 100 to 1000 nM were found for `CCC[C@H](CC(=O)O)c1cccc(OCc2ccc(-c3cccc(OC)c3)c(C(C)(C)C)c2)c1` (single isomer, unassigned) [Example 33, (3R)-3-(3-(((2-(1,1-Dimethylethyl)-3′-(methyloxy)-1,1′-biphenyl-4-yl)methyl)oxy)phenyl)hexanoic acid or (3S)-3-(3-(((2-(1,1-dimethylethyl)-3′-(methyloxy)-1,1′-biphenyl-4-yl)methyl)oxy)phenyl)hexanoic acid] in this work.

An EC50 (GPR40 [1]) of 100 to 1000 nM and an EC50 (GPR40 [2]) of less than 10 nM were found for `COc1ccc(F)c(-c2ccc(COc3cccc([C@@H](CC(=O)O)CC4CC4)c3)cc2C(OC)C(C)(C)C)c1` (single isomer, unassigned) [Example 69.18, (3R)-4-Cyclopropyl-3-(3-(((2-(2,2-dimethyl-1-(methyloxy)propyl)-2′-fluoro-5′-(methyloxy)-1,1′-biphenyl-4-yl)methyl)oxy)phenyl)butanoic acid or (3S)-4-cyclopropyl-3-(3-(((2-(2,2-dimethyl-1-(methyloxy)propyl)-2′-fluoro-5′-(methyloxy)-1,1′-biphenyl-4-yl)methyl)oxy)phenyl)butanoic acid] in this work.

An EC50 (GPR40 [1]) of 100 to 1000 nM and an EC50 (GPR40 [2]) of less than 10 nM were found for `COc1ccc(F)c(-c2ccc(COc3cccc(C(CC(=O)O)C4CC4)c3F)cc2C2=CCCC2(C)C)c1` (single isomer, unassigned) [Example 83.14, (3S)-3-Cyclopropyl-3-(3-(((2-(5,5-dimethyl-1-cyclopenten-1-yl)-2′-fluoro-5′-(methyloxy)-1,1′-biphenyl-4-yl)methyl)oxy)-2-fluorophenyl)propanoic acid or (3R)-3-cyclopropyl-3-(3-(((2-(5,5-dimethyl-1-cyclopenten-1-yl)-2′-fluoro-5′-(methyloxy)-1,1′-biphenyl-4-yl)methyl)oxy)-2-fluorophenyl)propanoic acid] in this work.

An EC50 (GPR40 [1]) of 100 to 1000 nM and an EC50 (GPR40 [2]) of 1000 to 10000 nM were found for `COc1ccc(F)c(-c2ccc(COc3cccc([C@H](C)CC(=O)O)c3)cc2OC(F)(F)F)c1` (single isomer, unassigned) [Example 46, (3R)-3-(3-(((2′-Fluoro-5′-(methyloxy)-2-((trifluoromethyl)oxy)-1,1′-biphenyl-4-yl)methyl)oxy)phenyl)butanoic acid or (3S)-3-(3-(((2′-fluoro-5′-(methyloxy)-2-((trifluoromethyl)oxy)-1,1′-biphenyl-4-yl)methyl)oxy)phenyl)butanoic acid] in this work.

An EC50 (GPR40 [1]) of 100 to 1000 nM and an EC50 (GPR40 [2]) of 10 to 100 nM were found for `COc1cccc(-c2ccc(COc3cccc(C(CC(=O)O)C4CCC4)c3)cc2C2CCCCCC2)c1` (single isomer, unassigned) [Example 79.8, (3S)-3-(3-(((2-Cycloheptyl-3′-(methyloxy)-1,1′-biphenyl-4-yl)methyl)oxy)phenyl)-3-cyclobutylpropanoic acid or (3R)-3-(3-(((2-cycloheptyl-3′-(methyloxy)-1,1′-biphenyl-4-yl)methyl)oxy)phenyl)-3-cyclobutylpropanoic acid] in this work.

An EC50 (GPR40 [1]) of 10 to 100 nM and an EC50 (GPR40 [2]) of less than 10 nM were found for `COc1ccc(F)c(-c2ccc(COc3cc(F)cc(C(CC(=O)O)CC4CC4)c3)cc2C2CCCC2(C)C)c1` (single isomer, unassigned) [Example 89.1] in this work.

An EC50 (GPR40 [1]) of 100 to 1000 nM and an EC50 (GPR40 [2]) of 10 to 100 nM were found for `COc1cccc(-c2ccc(COc3cccc(C(CC(=O)O)C4CCC4)c3)cc2C(C)(C)C)c1` (single isomer, unassigned) [Example 70.1, (3S)-3-Cyclobutyl-3-(3-(((2-(1,1-dimethylethyl)-3′-(methyloxy)-1,1′-biphenyl-4-yl)methyl)oxy)phenyl)propanoic acid or (3R)-3-cyclobutyl-3-(3-(((2-(1,1-dimethylethyl)-3′-(methyloxy)-1,1′-biphenyl-4-yl)methyl)oxy)phenyl)propanoic acid] in this work.

An EC50 (GPR40 [1]) of 100 to 1000 nM and an EC50 (GPR40 [2]) of 100 to 1000 nM were found for `C=CC[C@H](CC(=O)O)c1cccc(OCc2ccc(-c3cc(OC)ccc3F)c(C(C)(C)C)c2)c1` (single isomer, unassigned) [Example 51, (3R)-3-(3-(((2-(1,1-Dimethylethyl)-2′-fluoro-5′-(methyloxy)-1,1′-biphenyl-4-yl)methyl)oxy)phenyl)-5-hexenoic acid or (3S)-3-(3-(((2-(1,1-dimethylethyl)-2′-fluoro-5′-(methyloxy)-1,1′-biphenyl-4-yl)methyl)oxy)phenyl)-5-hexenoic acid] in this work.

— patent publication US8030354B2, “Substituted biphenyl GPR40 modulators” (Amgen Inc., priority 2007, dated 2011)
